How the values were obtained:
Assay in all cases: relative viability (nuclei count vs DMSO), 5 days (fraction); higher = more cells survive
[1] = compound: CN(C)CC1=CC(=CC=C1)N=C(C2=CC=CC=C2)C3=C(NC4=C3C=CC(=C4)C(=O)N(C)C)O + O=C(CCCCCCC(=O)Nc1ccccc1)NO [Vorinostat] (partner 1 µM)
In short: (§1)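 One day after seeding in 1536-well plates, lung cancer cell lines were dosed by pin tool. Dosing was either single-drug or a fixed anchor-drug dose plus five library-drug doses (not always all listed) in √10 steps. After 5 days, nuclei were stained in one fix-and-stain step and counted on 4× images, and relative viability is the nuclei count of treated wells over that of vehicle wells, given as the median of duplicate plates.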

[2] = compound: CN(C)CC1=CC(=CC=C1)N=C(C2=CC=CC=C2)C3=C(NC4=C3C=CC(=C4)C(=O)N(C)C)O + Cc1cc(Nc2cc(N3CCN(C)CC3)nc(Sc3ccc(NC(=O)C4CC4)cc3)n2)n[nH]1 [Tozasertib] (partner 0.1 µM)
In short: as §1

[3] = compound: CN(C)CC1=CC(=CC=C1)N=C(C2=CC=CC=C2)C3=C(NC4=C3C=CC(=C4)C(=O)N(C)C)O + C[C@@H](Oc1cc(-c2cnn(C3CCNCC3)c2)cnc1N)c1c(Cl)ccc(F)c1Cl [Crizotinib] (partner 1 µM)
In short: as §1

[4] = compound: CN(C)CC1=CC(=CC=C1)N=C(C2=CC=CC=C2)C3=C(NC4=C3C=CC(=C4)C(=O)N(C)C)O + CC1(C)CCC(c2ccc(Cl)cc2)=C(CN2CCN(c3ccc(C(=O)NS(=O)(=O)c4ccc(N[C@H](CCN5CCOCC5)CSc5ccccc5)c(S(=O)(=O)C(F)(F)F)c4)cc3)CC2)C1 [Navitoclax] (partner 0.5 µM)
In short: as §1

Cell Line	relative viability ([1]; first compound 0.08 µM)	relative viability ([1]; first compound 0.253 µM)	relative viability ([1]; first compound 0.8 µM)	relative viability ([1]; first compound 2.53 µM)	relative viability ([1]; first compound 8 µM)	relative viability ([2]; first compound 0.08 µM)	relative viability ([2]; first compound 0.253 µM)	relative viability ([2]; first compound 0.8 µM)	relative viability ([2]; first compound 2.53 µM)	relative viability ([2]; first compound 8 µM)	relative viability ([3]; first compound 0.08 µM)	relative viability ([3]; first compound 0.253 µM)	relative viability ([3]; first compound 0.8 µM)	relative viability ([3]; first compound 2.53 µM)	relative viability ([3]; first compound 8 µM)	relative viability ([4]; first compound 0.08 µM)	relative viability ([4]; first compound 0.253 µM)	relative viability ([4]; first compound 0.8 µM)	relative viability ([4]; first compound 2.53 µM)	relative viability ([4]; first compound 8 µM)
COR-L23	0.539	0.44	0.468	0.407	0.396	0.185	0.226	0.201	0.205	0.154	0.675	0.603	0.622	0.532	0.553	1.02	1.07	1.07	0.77	0.791
LK-2	0.352	0.28	0.272	0.331	0.262	0.162	0.165	0.171	0.188	0.198	0.249	0.21	0.264	0.256	0.216	1.06	0.784	0.897	0.789	0.761
PC-14	0.576	0.675	0.833	0.687	0.592	0.564	0.604	0.618	0.531	0.649	0.948	0.885	0.842	0.786	1.01	1.08	1.03	0.965	1.03	1.07
SW 1573	0.616	1.08	0.958	0.744	0.55	0.292	0.172	0.149	0.176	0.152	0.842	0.854	0.672	0.866	0.794	1.01	0.822	0.844	0.906	1.01
NCI-H2087	0.53	0.668	0.69	0.796	0.846	0.242	0.233	0.265	0.27	0.233	0.817	0.838	0.828	0.72	0.872	1.02	0.942	1.17	1.03	0.9
NCI-H460	0.722	0.702	0.716	0.704	0.728	0.292	0.574	0.62	0.426	0.397	0.824	0.811	0.998	0.819	0.733	1.05	1.13	1.07	1.05	1.05
NCI-H1734	0.909	0.829	0.828	0.86	0.66	0.259	0.262	0.227	0.268	0.247	0.7	0.651	0.597	0.667	0.557	0.821	0.836	0.889	0.844	0.644
NCI-H1648	0.518	0.585	–	0.512	0.446	0.419	–	0.572	0.383	0.396	–	–	–	–	–	–	–	–	–	–
NCI-H2228	0.653	0.583	0.977	0.65	0.542	0.221	0.332	0.265	0.228	0.232	0.406	0.505	0.442	0.432	0.361	0.868	0.909	0.731	0.803	0.663
HCC-44	1.18	1.09	1.2	1.1	1.29	1.08	0.836	1.03	0.927	0.862	0.801	0.752	0.785	0.727	0.89	0.948	0.95	0.942	0.995	0.994
EMC-BAC-2	0.476	0.548	0.463	0.463	0.653	0.297	0.283	0.383	0.258	0.267	0.725	0.772	0.804	0.753	0.681	1.13	1.15	1.17	1.18	1.1
NCI-H522	0.986	0.984	0.89	0.977	0.843	0.544	0.46	0.546	0.587	0.62	–	–	–	–	–	–	–	–	–	–
NCI-H1915	0.528	0.512	0.501	0.516	0.415	0.474	0.409	0.432	0.407	0.414	0.886	0.885	0.989	0.832	0.848	0.819	0.75	0.782	0.791	0.805
NCI-H661	0.901	0.756	0.769	0.751	0.748	0.374	0.345	0.355	0.319	0.367	–	0.981	1.03	0.862	0.994	–	–	–	–	–
LCLC-97TM1	0.683	0.728	0.728	0.623	0.551	0.219	0.256	0.224	0.283	0.255	0.37	0.517	0.453	0.331	0.445	0.325	0.276	0.362	0.395	0.734
NCI-H1793	0.826	0.812	0.563	0.821	0.859	0.305	0.385	–	0.368	0.347	–	–	–	–	–	0.387	0.439	0.269	0.492	0.406
HOP-62	0.624	0.659	0.643	0.7	0.46	0.389	0.383	0.364	0.334	0.376	0.927	0.907	1.09	1.06	0.882	1.05	0.94	1.03	1.04	0.977
